# Laboratory results: ChEMBL document CHEMBL3259726, “Identification of a new series of potent diphenol HSP90 inhibitors by fragment merging and structure-based optimization” (Bioorg Med Chem Lett, 2014)
# Legend:
# [1] = target: CYP2C19 (Homo sapiens, UniProt P33261); assay: Inhibition of CYP2C19 in human liver microsomes using mephenytoin as substrate at 10 uM; format: ADME; settings: probe mephenytoin
# [2] = target: CYP3A4 (Homo sapiens, UniProt P08684); assay: Inhibition of CYP3A4 in human liver microsomes using midazolam or testosterone as substrate at 10 uM; format: ADME; settings: probe midazolam or testosterone
# [3] = target: CYP2D6 (Homo sapiens, UniProt P10635); assay: Inhibition of CYP2D6 in human liver microsomes using dextromethorphan as substrate at 10 uM; format: ADME; settings: probe dextromethorphan
# [4] = target: T1, CYP1A2 (Homo sapiens, UniProt P05177); assay: Inhibition of CYP1A2 in human liver microsomes using phenacetin as substrate at 10 uM; format: ADME; settings: probe phenacetin
# T1 sequence (P05177 whole entry): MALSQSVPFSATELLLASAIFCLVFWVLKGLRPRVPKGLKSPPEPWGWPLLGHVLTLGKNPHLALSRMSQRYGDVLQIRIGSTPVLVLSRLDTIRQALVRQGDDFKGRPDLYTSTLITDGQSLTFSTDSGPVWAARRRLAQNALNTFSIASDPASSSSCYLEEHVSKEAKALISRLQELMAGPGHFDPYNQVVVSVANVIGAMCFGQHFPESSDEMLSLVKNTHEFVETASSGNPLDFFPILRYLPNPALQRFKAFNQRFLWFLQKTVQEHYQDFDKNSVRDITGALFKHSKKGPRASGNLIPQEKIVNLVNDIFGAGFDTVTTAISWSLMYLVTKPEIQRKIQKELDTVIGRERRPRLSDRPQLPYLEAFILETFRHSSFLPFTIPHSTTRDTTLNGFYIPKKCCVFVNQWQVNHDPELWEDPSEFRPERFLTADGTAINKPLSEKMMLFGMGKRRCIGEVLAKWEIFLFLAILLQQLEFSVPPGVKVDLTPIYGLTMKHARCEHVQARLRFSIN
# [5] = target: CYP2C9 (Homo sapiens, UniProt P11712); assay: Inhibition of CYP2C9 in human liver microsomes using diclofenac as substrate at 10 uM; format: ADME; settings: probe diclofenac
# [6] = target: T2, Heat shock protein HSP 90-alpha (Homo sapiens, UniProt P07900); assay: biochemical
# Description: Displacement of GM-BODIPY from human full length HSP90 alpha expressed in baculovirus-infected Sf9 cells after 16 hrs by fluorescence polarization assay
# [7] = Intrinsic clearance in rat liver microsomes at 1 uM after 5 mins by LC-MS/MS analysis; format: ADME; settings: read-out: CLH
# [8] = Retention time of the compound; format: physicochemical
# [9] = target: Cytochrome P450 2C19 (Homo sapiens, UniProt P33261); assay: Time-dependent inhibition of CYP2C19 in human liver microsomes using mephenytoin as substrate at 10 uM; format: ADME; settings: TDE = time-dependent effect
# [10] = Intrinsic clearance in human liver microsomes at 1 uM after 5 mins by LC-MS/MS analysis; format: ADME; settings: read-out: CLH
# [11] = target: T2, Heat shock protein HSP 90-alpha; assay: Displacement of GM-BODIPY from human full length HSP90 alpha expressed in baculovirus-infected Sf9 cells at 5 uM after 16 hrs by fluorescence polarization assay
# [12] = test system: A549; assay: Growth inhibition of human A549 cells after 72 hrs by spectrophotometer analysis; format: functional; settings: A549, 72 h
# [13] = test system: HCT-116; assay: Growth inhibition of human HCT116 cells after 72 hrs by spectrophotometer analysis; format: functional; settings: HCT-116, 72 h
# [14] = Growth inhibition of human NCI-H3122 cells after 72 hrs by spectrophotometer analysis; format: functional; settings: NCI-H3122, 72 h
# [15] = Growth inhibition of human BT474 cells after 72 hrs by spectrophotometer analysis; format: functional; settings: BT-474, 72 h
# [16] = target: T2, Heat shock protein HSP 90-alpha; assay: Displacement of GM-BODIPY from human full length HSP90 alpha expressed in baculovirus-infected Sf9 cells at 1 uM after 16 hrs by fluorescence polarization assay
# Chain of CYP3A4 (P08684 whole entry): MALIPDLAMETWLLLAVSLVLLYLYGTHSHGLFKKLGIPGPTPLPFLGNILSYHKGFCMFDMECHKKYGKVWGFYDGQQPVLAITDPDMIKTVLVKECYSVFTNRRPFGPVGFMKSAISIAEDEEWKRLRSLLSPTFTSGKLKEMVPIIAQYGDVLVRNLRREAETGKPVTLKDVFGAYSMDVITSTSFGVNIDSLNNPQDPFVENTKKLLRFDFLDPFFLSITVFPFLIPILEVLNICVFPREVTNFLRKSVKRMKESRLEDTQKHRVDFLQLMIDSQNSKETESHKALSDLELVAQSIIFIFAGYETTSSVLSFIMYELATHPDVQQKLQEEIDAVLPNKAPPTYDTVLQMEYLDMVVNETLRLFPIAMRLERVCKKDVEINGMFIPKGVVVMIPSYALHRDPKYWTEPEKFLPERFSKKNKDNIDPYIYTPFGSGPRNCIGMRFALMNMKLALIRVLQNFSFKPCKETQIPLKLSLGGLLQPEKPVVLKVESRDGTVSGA
# Chain of CYP2D6 (P10635 whole entry): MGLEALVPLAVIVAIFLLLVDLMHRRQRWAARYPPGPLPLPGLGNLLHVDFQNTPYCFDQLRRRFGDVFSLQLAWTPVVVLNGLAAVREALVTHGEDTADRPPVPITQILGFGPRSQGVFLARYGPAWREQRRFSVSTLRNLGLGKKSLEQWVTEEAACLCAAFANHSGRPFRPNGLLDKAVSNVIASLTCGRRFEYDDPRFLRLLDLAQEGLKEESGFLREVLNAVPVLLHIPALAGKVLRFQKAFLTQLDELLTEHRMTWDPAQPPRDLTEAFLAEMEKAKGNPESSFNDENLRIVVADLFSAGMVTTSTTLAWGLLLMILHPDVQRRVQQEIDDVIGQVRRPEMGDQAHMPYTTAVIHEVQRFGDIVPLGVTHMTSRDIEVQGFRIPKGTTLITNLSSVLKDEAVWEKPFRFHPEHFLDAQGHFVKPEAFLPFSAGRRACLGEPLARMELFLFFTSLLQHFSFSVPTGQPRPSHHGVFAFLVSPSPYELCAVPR
# Chain of CYP2C19 (P33261 whole entry): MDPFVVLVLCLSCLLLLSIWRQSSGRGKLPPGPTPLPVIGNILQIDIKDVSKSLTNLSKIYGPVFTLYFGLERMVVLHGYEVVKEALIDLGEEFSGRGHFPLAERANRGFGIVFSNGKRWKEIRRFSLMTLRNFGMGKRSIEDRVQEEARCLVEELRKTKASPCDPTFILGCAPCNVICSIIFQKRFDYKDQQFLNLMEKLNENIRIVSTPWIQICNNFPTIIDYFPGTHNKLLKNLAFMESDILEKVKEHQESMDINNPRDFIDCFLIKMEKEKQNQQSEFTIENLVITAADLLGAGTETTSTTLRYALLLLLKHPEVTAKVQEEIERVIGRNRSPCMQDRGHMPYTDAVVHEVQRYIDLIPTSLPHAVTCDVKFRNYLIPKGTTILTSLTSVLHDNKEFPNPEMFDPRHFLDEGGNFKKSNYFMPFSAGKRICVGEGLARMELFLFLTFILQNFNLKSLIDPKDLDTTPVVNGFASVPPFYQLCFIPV
# Chain of CYP2C9 (P11712 whole entry): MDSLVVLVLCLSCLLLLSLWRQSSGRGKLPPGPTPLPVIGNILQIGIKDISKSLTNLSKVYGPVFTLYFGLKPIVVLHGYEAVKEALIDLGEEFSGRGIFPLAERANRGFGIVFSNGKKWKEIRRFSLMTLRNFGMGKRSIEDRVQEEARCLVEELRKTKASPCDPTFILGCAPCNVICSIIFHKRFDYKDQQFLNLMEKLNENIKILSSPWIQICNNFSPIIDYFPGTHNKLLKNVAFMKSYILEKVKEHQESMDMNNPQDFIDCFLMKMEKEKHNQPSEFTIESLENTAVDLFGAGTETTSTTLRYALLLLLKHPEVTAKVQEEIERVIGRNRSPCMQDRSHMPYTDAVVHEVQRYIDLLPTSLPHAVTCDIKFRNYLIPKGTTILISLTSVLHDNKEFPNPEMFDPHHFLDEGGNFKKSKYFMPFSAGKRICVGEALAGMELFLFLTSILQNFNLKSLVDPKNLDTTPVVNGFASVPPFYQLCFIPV
# Chain of Cytochrome P450 2C19 (P33261 whole entry): as the sequence (P33261 whole entry) above
SMILES,IC50 [6],Retention_time [8],inhibition at 10 µM [1],inhibition at 10 µM [2],inhibition at 10 µM [3],inhibition at 10 µM [4],inhibition at 10 µM [5],microsomal CLint at 1 µM [7],other results
O=C(c1cc(-c2nnc3ccc(Br)cn23)c(O)cc1O)N1CCc2ccccc2C1,–,2.76 min,–,–,–,–,–,–,inhibition [11]: 18.7%
Cc1ccc(Nc2cc(C(=O)N3Cc4ccccc4C3)c(O)cc2O)cc1,0.071 µM,3.29 min,58%,38%,7%,61%,75%,–,–
CN1CCN(C(=O)c2cc(-c3nnc4ccc(Br)cn34)c(O)cc2O)CC1,–,1.86 min,–,–,–,–,–,–,inhibition [11]: 8.8%
O=C(c1cc(-n2ccc3ccccc32)c(O)cc1O)N1Cc2ccccc2C1,0.038 µM,3.56 min,60%,17%,14%,52%,73%,25 µL/min/mg,GI50 [12]: 14.3 µM; GI50 [13]: 10.1 µM; GI50 [14]: 7.53 µM; GI50 [15]: 7.25 µM; microsomal CLint at 1 µM [10]: 13 µL/min/mg
COc1ccc2c(c1)c(CCNC(C)=O)cn2-c1cc(C(=O)N2Cc3ccccc3C2)c(O)cc1O,–,3.04 min,–,–,–,–,–,–,inhibition [16]: 56.9%
CN1CCN(C(=O)c2cc(-n3ccc4ccccc43)c(O)cc2O)CC1,0.63 µM,2.35 min,–,–,–,–,–,–,–
O=C(c1cc(-n2ccc3ccccc32)c(O)cc1O)N1CCc2sccc2C1,0.33 µM,3.45 min,–,–,–,–,–,–,–
O=C(c1cc(-n2ccc3c(Br)cccc32)c(O)cc1O)N1Cc2ccccc2C1,0.07 µM,3.8 min,70%,22%,19%,34%,54%,49 µL/min/mg,GI50 [12]: 21 µM; GI50 [13]: 12.3 µM; GI50 [14]: 9.67 µM; GI50 [15]: 8.52 µM
Cc1ccc2c(ccn2-c2cc(C(=O)N3Cc4ccccc4C3)c(O)cc2O)c1,0.038 µM,3.68 min,63%,4%,7%,28%,68%,42 µL/min/mg,GI50 [12]: 11.1 µM; GI50 [13]: 8.6 µM; GI50 [14]: 7.53 µM; GI50 [15]: 7.07 µM
O=C(c1cc(Nc2ccccc2)c(O)cc1O)N1Cc2ccccc2C1,0.021 µM,3.12 min,52%,19%,22%,72%,68%,12 µL/min/mg,microsomal CLint at 1 µM [10]: 2 µL/min/mg
O=C(c1cc(Nc2ccc(Cl)cc2Cl)c(O)cc1O)N1Cc2ccccc2C1,0.19 µM,3.87 min,23%,33%,5%,40%,73%,16 µL/min/mg,GI50 [12]: 24.2 µM; GI50 [13]: 10.6 µM; GI50 [14]: 10.1 µM; GI50 [15]: 6.31 µM

# More lines, main results first:
IC50 [6],Retention_time [8],SMILES,inhibition at 10 µM [1],inhibition at 10 µM [2],inhibition at 10 µM [3],inhibition at 10 µM [4],inhibition at 10 µM [5],microsomal CLint at 1 µM [7],other results
0.039 µM,3.45 min,O=C(c1cc(-n2ccc3c([N+](=O)[O-])cccc32)c(O)cc1O)N1Cc2ccccc2C1,89%,8%,50%,47%,74%,6 µL/min/mg,inhibition (INH) [9]: tde; microsomal CLint at 1 µM [10]: 22 µL/min/mg
0.078 µM,3.8 min,O=C(c1cc(-n2ccc3cc(Br)ccc32)c(O)cc1O)N1Cc2ccccc2C1,71%,13%,32%,48%,78%,16 µL/min/mg,microsomal CLint at 1 µM [10]: 18 µL/min/mg
0.25 µM,2.45 min,O=C(c1cc(-n2ccc3cnccc32)c(O)cc1O)N1Cc2ccccc2C1,–,–,–,–,–,–,–
0.13 µM,2.4 min,O=C(c1cc(-n2ccc3ncccc32)c(O)cc1O)N1Cc2ccccc2C1,–,–,–,–,–,–,–
–,2.97 min,O=C(O)Cc1cn(-c2cc(C(=O)N3Cc4ccccc4C3)c(O)cc2O)c2ccccc12,–,–,–,–,–,–,inhibition [16]: 14.1%
0.13 µM,3.54 min,O=C(c1cc(-n2ccc3ccccc32)c(O)cc1O)N1CCc2ccccc2C1,–,–,–,–,–,–,–
1.5 µM,2.69 min,COc1ccc2c(c1)c(CCN)cn2-c1cc(C(=O)N2Cc3ccccc3C2)c(O)cc1O,–,–,–,–,–,–,–
0.13 µM,3.32 min,COC(=O)c1cccc2c1ccn2-c1cc(C(=O)N2Cc3ccccc3C2)c(O)cc1O,–,–,–,–,–,–,–
0.62 µM,2.74 min,CNC(=O)c1cccc2c1ccn2-c1cc(C(=O)N2Cc3ccccc3C2)c(O)cc1O,–,–,–,–,–,–,–
